Measurements: US11007183B2, “Cancer treatments using combinations of PI3K/Akt pathway and ERK inhibitors” (BIOMED VALLEY DISCOVERIES, INC., priority 2013, dated 2021)
Entries after “also recorded” stand apart in the source; their conditions may differ.

Tested on: MAPK signaling in A375 cells
Assay: Western blot of MAPK signaling, cell cycle and apoptosis markers
Assay type: cell-based, human
Method: For Western blot studies, HCT116 cells (5×10^6) were seeded into 10 cm dishes in McCoy's 5A plus 10% FBS. A375 cells (2.5×10^6) were seeded into 10 cm dishes in DMEM plus 10% FBS. Cells were allowed to adhere overnight prior to addition of the indicated amount of test compound (BVD-523) or vehicle control. Cells were treated for either 4 or 24 hours before isolation of whole-cell protein lysates, as specified below. Cells were harvested by trypsinisation, pelleted and snap frozen. Lysates were prepared with RIPA (Radio-Immunoprecipitation Assay) buffer, clarified by centrifugation and quantitated by bicinchoninic acid assay (BCA) assay. 20-50 μg of protein was resolved by SDS-PAGE electrophoresis, blotted onto PVDF membrane and probed using the antibodies detailed in Table 9 (for the 4-hour treatment) and Table 10 (for the 24-hour treatment) below.

[1] = A375, prolonged (24 hours) treatment

`CC(C)Nc1cc(-c2c[nH]c(C(=O)N[C@H](CO)c3cccc(Cl)c3)c2)c(Cl)cn1` [BVD-523] was tested, and the cyclin-D1 protein level (24 hours (prolonged) treatment) was “greatly reduced”, the “MAPK feedback phosphatase DUSP6 protein level” value (24 hours (prolonged) treatment, BRAF mutant cells) was “greatly reduced” and the “Apoptosis / PARP cleavage” value [1] was “PARP protein cleavage and increased apoptosis were not noted; also recorded: increased apoptosis was not observed”. For the same compound, the Bim-EL level [1] was “increased”, the “Phosphorylation of ERK-dependent residues (T359/S363) in RSK 1 and 2” value (A375 BRAF mutant cell line, 4 hours, micromolar concentrations) was “reduced” and the “Concentrations required to induce changes in substrate phosphorylation and effector targets of ERK kinases” value (RAF and RAS mutant cancer cells in-vitro, acute and prolonged treatment) was “low micromolar range”. For the same compound, the “Cellular ERK enzyme activity” value (acute or prolonged treatment) was “fully inhibited”.
